Measurements taken from US20050245399A1, “Pyrazole derivatives as herbicidal compositions containing them” (ISHIHARA SANGYO KAISHA, LTD., priority 2004, published 2005).

Experiments:
Assay type in all cases: in vivo
[1] = tested on: green foxtail (Setaria viridis L.): SETVI; assay: Test Example 1 pre-emergence herbicidal activity, SETVI; conditions: Rate 63 g a.i./ha, visually observed 20th to 23rd day after application
Summary of the method: (§1)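 Pre-emergence soil spray: wettable powder or emulsifiable concentrate diluted in water (500 L/ha) applied one day after sowing in upland field soil. Visual growth-control rating (%) on days 20–23, 0 = untreated control, 100 = complete kill.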

[2] = tested on: prickly sida (Sida spinosa L.): SEDSP; assay: Test Example 1 pre-emergence herbicidal activity, SIDSP; conditions: Rate 63 g a.i./ha, visually observed 20th to 23rd day after application
Summary of the method: as §1

[3] = tested on: velvetleaf (Abutilon theophrasti): ABUTH; assay: Test Example 1 pre-emergence herbicidal activity, ABUTH; conditions: Rate 63 g a.i./ha, visually observed 20th to 23rd day after application
Summary of the method: as §1

[4] = tested on: wheat (Triticum aestivum L.): TRZAX; assay: Test Example 1 pre-emergence herbicidal activity, TRZAX; conditions: Rate 63 g a.i./ha, visually observed 20th to 23rd day after application
Summary of the method: as §1

[5] = tested on: soybean (Glycine max Merr.): GLXMA; assay: Test Example 1 pre-emergence herbicidal activity, GLXMA; conditions: Rate 63 g a.i./ha, visually observed 20th to 23rd day after application
Summary of the method: as §1

[6] = tested on: barnyardgrass (Echinochloa crus-galli L.), ECHCG; assay: Test Example 2 post-emergence (foliage treatment) herbicidal activity, ECHCG
Summary of the method: (§2)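 Visual growth-control score (0 = untreated, 100 = complete kill) taken 20th-23rd day after a foliar spray. Seedlings were grown in upland field soil and treated at leaf stage: barnyardgrass 1.1-2.1, crabgrass 1.0-2.0, redroot pigweed 0.1-1.5, rice 1.0-2. Spray volume was 500 L/ha water with 0.1% (v/v) agricultural spreader.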

[7] = tested on: green foxtail (Setaria viridis L.), SETVI; assay: Test Example 2 post-emergence (foliage treatment) herbicidal activity, SETVI
Summary of the method: (§3)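 Foliar spray of formulated compound (500 L/ha dilution water, 0.1% v/v spreader) onto young potted plants at defined leaf stages. Scored 0-100% by visual inspection 20-23 d post-spray.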

[8] = tested on: velvetleaf (Abutilon theophrasti), ABUTH; assay: Test Example 2 post-emergence (foliage treatment) herbicidal activity, ABUTH
Summary of the method: as §3

[9] = tested on: rice (Oryza sativa L.), ORYSA; assay: Test Example 2 post-emergence (foliage treatment) herbicidal activity, ORYSA
Summary of the method: as §2

[10] = tested on: wheat (Triticum aestivum L.), TRZAX; assay: Test Example 2 post-emergence (foliage treatment) herbicidal activity, TRZAX
Summary of the method: as §3

[11] = tested on: corn (Zea mays L.), ZEAMX; assay: Test Example 2 post-emergence (foliage treatment) herbicidal activity, ZEAMX
Summary of the method: as §3

[12] = tested on: barnyardgrass (Echinochiloa oryzicola: ECHOR); assay: Test Example 3 water application herbicidal activity (paddy), ECHOR; conditions: 63 g a.i./ha, water application under submerged condition at 0.5 leaf stage, visually observed 14th day after application; 0 = untreated control, 100 = complete kill
Summary of the method: (§4)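 Flooded paddy-soil pots in greenhouse; ECHOR and SCPJO sown, SAGPY tubers planted a day later, compound applied into 3–4 cm water at weeds' 0.5-leaf stage. Rice transplanted at 2-leaf stage, treated day 4 after transplanting. Visual growth control 0–100% at 14 days (weeds) and 21 days (rice) after application.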

[13] = tested on: japanese bulrush (Scirpus juncoides: SCPJO); assay: Test Example 3 water application herbicidal activity (paddy), SCPJO; conditions: 63 g a.i./ha, water application under submerged condition at 0.5 leaf stage, visually observed 14th day after application; 0 = untreated control, 100 = complete kill
Summary of the method: as §4

[14] = tested on: japanese ribbon wapato (Sagittaria pygmaea: SA GPY); assay: Test Example 3 water application herbicidal activity (paddy), SAGPY; conditions: 63 g a.i./ha, water application under submerged condition, tubers planted, visually observed 14th day after application; 0 = untreated control, 100 = complete kill
Summary of the method: as §4

| Compound | Pre-emergence Herbicidal Activity SETVI (growth controlling degree) [1] | Pre-emergence Herbicidal Activity SIDSP (growth controlling degree) [2] | Pre-emergence Herbicidal Activity ABUTH (growth controlling degree) [3] | Pre-emergence Herbicidal Activity TRZAX (growth controlling degree) [4] | Pre-emergence Herbicidal Activity GLXMA (growth controlling degree) [5] | growth controlling degree, ECHCO ([6]; 63 g a.i./ha) | growth controlling degree, SETVI ([7]; 63 g a.i./ha) | growth controlling degree, ABUTH ([8]; 63 g a.i./ha) | growth controlling degree, ORYSA ([9]; 63 g a.i./ha) | growth controlling degree, TRZAX ([10]; 63 g a.i./ha) | growth controlling degree, ZEAMX ([11]; 63 g a.i./ha) | growth controlling degrees (%) ECHOR [12] | growth controlling degrees (%) SCPJO [13] | growth controlling degrees (%) SAGPY [14] | growth controlling degree, ECHCO ([6]; 125 g a.i./ha) | growth controlling degree, SETVI ([7]; 125 g a.i./ha) | growth controlling degree, ABUTH ([8]; 125 g a.i./ha) | growth controlling degree, ORYSA ([9]; 125 g a.i./ha) | growth controlling degree, TRZAX ([10]; 125 g a.i./ha) | growth controlling degree, ZEAMX ([11]; 125 g a.i./ha) |
| --- | --- | --- | --- | --- | --- | --- | --- | --- | --- | --- | --- | --- | --- | --- | --- | --- | --- | --- | --- | --- |
| COc1c(Cl)cc(F)c(-c2nn(C)c(OC(F)F)c2Cl)c1N(C=O)CC(=O)c1ccccc1 [Compound 1-12] | 95% | 100% | 100% | 20% | 40% | 70% | 95% | 100% | 40% | 20% | 10% | 95% | 50% | 30% |  |  |  |  |  |  |
| COc1c(Cl)cc(F)c(-c2nn(C)c(OC(F)F)c2Cl)c1NC(C)C [Compound 1-59] | 100% | 100% | 95% | 30% | 30% | 100% | 100% | 100% | 40% | 50% | 80% | 100% | 80% | 60% |  |  |  |  |  |  |
| COc1c(Cl)cc(F)c(-c2nn(C)c(OC(F)F)c2Cl)c1N(C(=O)C=C(C)C)C(=O)C=C(C)C [Compound 1-11] | 100% | 100% | 100% | 20% | 50% | 70% | 100% | 100% | 40% | 20% | 30% | 100% | 40% | 40% |  |  |  |  |  |  |
| COc1c(Cl)cc(F)c(-c2nn(C)c(OC(F)F)c2Cl)c1N(C=O)CC(=O)c1ccc(Cl)cc1 [Compound 1-13] | 90% | 100% | 100% | 30% | 50% | 80% | 90% | 100% | 70% | 30% | 40% | 95% | 40% | 0% |  |  |  |  |  |  |
| COc1c(Cl)cc(F)c(-c2nn(C)c(OC(F)F)c2Cl)c1NC1CCCC1 [Compound 1-60] | 30% | 0% | 30% | 0% | 0% | 100% | 100% | 100% | 40% | 40% | 50% | 100% | 60% | 60% |  |  |  |  |  |  |
| Cn1nc(-c2c(F)cc(Cl)c(OC(F)F)c2N)c(Cl)c1OC(F)F [Compound 1-81, 3-chloro-6-[4-chloro-5-(difluoromethoxy)-1-methyl-1H-pyrazol-3-yl]-2-(difluoromethoxy)-5-fluorobenzenamine] | 100% | 100% | 100% | 20% | 20% |  |  |  |  |  |  | 100% | 100% | 95% | 100% | 100% | 100% | 70% | 100% | 90% |
| COc1c(Cl)cc(F)c(-c2nn(C)c(OC(F)F)c2Cl)c1NC(=O)C=C(C)C [Compound 1-9] | 100% | 100% | 100% | 40% | 90% | 80% | 100% | 100% | 80% | 40% | 70% | 100% | 100% | 100% |  |  |  |  |  |  |
| COc1c(Cl)cc(F)c(-c2nn(C)c(OC(F)F)c2Cl)c1N(C)C=O [Compound 1-6] | 50% | 40% | 50% | 20% | 0% | 60% | 100% | 100% | 40% | 30% | 30% | 90% | 60% | 30% |  |  |  |  |  |  |
| COc1c(Cl)cc(F)c(-c2nn(C)c(OC(F)F)c2Cl)c1N(C=O)CC(C)=O [Compound 1-14] | 100% | 100% | 100% | 40% | 60% | 98% | 100% | 100% | 40% | 40% | 40% | 100% | 90% | 98% |  |  |  |  |  |  |
| COc1c(Cl)cc(F)c(-c2nn(C)c(OC(F)F)c2Cl)c1N(C=O)C1CCCC1 [Compound 1-10] | 100% | 100% | 100% | 40% | 50% | 90% | 100% | 100% | 70% | 40% | 40% | 100% | 40% | 40% |  |  |  |  |  |  |
